Laboratory results reported in PubChem BioAssay AID330 (DTP/NCI, 2004).
Values joined by “and” are separate entries in the source; they are usually repeats but may differ in a detail not shown here. Equal values may be shown once. Inconclusive results and toxic doses are left out. The calls were made as follows: active = survival T/C of 150% or more; inactive = T/C below 125% in these data.

Test system: P388 leukemia ip, CD2F1 mice, survival T/C
Test: NCI In Vivo Anticancer Drug Screen. Data for tumor model P388 Leukemia (intraperitoneal) in CD2F1 (CDF1) mice
Details: endpoint: median survival time, higher = longer survival
Procedure, shortened: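 Mice carrying the transplanted tumor received test compound or vehicle. Survival was recorded in each group, and the value is the treated-group measurement divided by that of the vehicle-treated control group.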

[1] = dose: 50.0 mg/kg/injection, schedule: Q01DX005 (ip), vehicle: saline with Tween-80
[2] = dose: 100.0 mg/kg/injection, schedule: Q01DX005 (ip), vehicle: saline with Tween-80
[3] = dose: 200.0 mg/kg/injection, schedule: Q01DX005 (ip), vehicle: saline with Tween-80
[4] = dose: 100.0 mg/kg/injection, schedule: Q01DX009 (ip), vehicle: saline
[5] = dose: 200.0 mg/kg/injection, schedule: Q01DX009 (ip), vehicle: saline
[6] = dose: 50.0 mg/kg/injection, schedule: Q01DX005 (ip), vehicle: saline
[7] = dose: 100.0 mg/kg/injection, schedule: Q01DX005 (ip), vehicle: saline
[8] = dose: 60.0 mg/kg/injection, schedule: Q01DX005 (ip), vehicle: saline with Tween-80
[9] = dose: 120.0 mg/kg/injection, schedule: Q01DX005 (ip), vehicle: saline with Tween-80

Measured: T/C

CC1(C)CC(=O)N(CN2CCOCC2)C(=O)C1
inactive: dose: 60.0 mg/kg/injection, schedule: Q01DX005 (ip), vehicle: saline 100 % of control | dose: 120.0 mg/kg/injection, schedule: Q01DX005 (ip), vehicle: saline 100 % of control | dose: 240.0 mg/kg/injection, schedule: Q01DX005 (ip), vehicle: saline 110 % of control

COc1ccc2c(C)cc(=O)sc2c1
inactive: dose: 50.0 mg/kg/injection, schedule: Q01DX009 (ip), vehicle: saline + Tween-80 + alcohol 101 % of control | dose: 100.0 mg/kg/injection, schedule: Q01DX009 (ip), vehicle: saline + Tween-80 + alcohol 104 % of control | dose: 200.0 mg/kg/injection, schedule: Q01DX009 (ip), vehicle: saline + Tween-80 + alcohol 100 % of control

CCOC(=O)COc1ccc(CC)cc1Cc1ccc(OC)cc1
inactive: [1] 97 % of control | [2] 111 % of control | [3] 111 % of control

COc1c(O)c(OC)c2oc3ccccc3c(=O)c2c1OC
inactive: dose: 2.5 mg/kg/injection, schedule: Q01DX009 (ip), vehicle: saline + alcohol 100 % of control | dose: 5.0 mg/kg/injection, schedule: Q01DX009 (ip), vehicle: saline + alcohol 101 % of control | dose: 10.0 mg/kg/injection, schedule: Q01DX009 (ip), vehicle: saline + alcohol 100 % of control

C[S+](C)CCC[S+](C)C
inactive: dose: 50.0 mg/kg/injection, schedule: Q01DX009 (ip), vehicle: saline 105 % of control | [4] 99 % of control | [5] 105 % of control

c1ccc2c(c1)Cc1ccccc1N2CCN1CCCCC1
inactive: [6] 101 % of control | [7] 104 % of control

Cc1c(NC(=O)Nc2cc([N+](=O)[O-])ccc2Cl)c(=O)n(-c2ccccc2)n1C
inactive: [8] 94 % of control | [9] 86 % of control

CCOC(=O)C(CSC(c1ccccc1)(c1ccccc1)c1ccccc1)NC(=O)c1csc(CCNC(=O)c2ccccc2)n1 (stereo not drawn)
inactive: dose: 4.0 mg/kg/injection, schedule: Q01DX009 (ip), vehicle: other 100 % of control | dose: 8.0 mg/kg/injection, schedule: Q01DX009 (ip), vehicle: other 99 % of control | dose: 16.0 mg/kg/injection, schedule: Q01DX009 (ip), vehicle: other 91 % of control | dose: 32.0 mg/kg/injection, schedule: Q01DX009 (ip), vehicle: other 89 % of control | dose: 62.5 mg/kg/injection, schedule: Q01DX009 (ip), vehicle: other 113 % of control | dose: 64.0 mg/kg/injection, schedule: Q01DX009 (ip), vehicle: other 89 % of control | dose: 125.0 mg/kg/injection, schedule: Q01DX009 (ip), vehicle: other 108 % of control | dose: 250.0 mg/kg/injection, schedule: Q01DX009 (ip), vehicle: other 108 % of control

C=CC(=O)Nc1ccc2c(c1)OCCOCCOCCO2
inactive: [1] 101 % of control | [2] 102 % of control | [3] 100 % of control

O=C(O)C[n+]1cccc2ccccc21
inactive: [6] 103 % of control | [7] 93 % of control | dose: 200.0 mg/kg/injection, schedule: Q01DX005 (ip), vehicle: saline 87 % of control

CCCCN=Cc1ccccc1O.CCCCN=Cc1ccccc1O.[Zn]
inactive: dose: 50.0 mg/kg/injection, schedule: Q01DX009 (ip), vehicle: Klucel (hydroxypropylcellulose) (HPC) 98 % of control | dose: 100.0 mg/kg/injection, schedule: Q01DX009 (ip), vehicle: Klucel (hydroxypropylcellulose) (HPC) 112 % of control

CC(=O)OCNCOC(C)=O
inactive: [4] 106 % of control | [5] 108 % of control | dose: 400.0 mg/kg/injection, schedule: Q01DX009 (ip), vehicle: saline 106 % of control

COc1c2occc2c(NC(=O)C(F)(F)F)c2ccc(=O)oc12
inactive: dose: 100.0 mg/kg/injection, schedule: Q04DX002 (ip), vehicle: saline 100 % of control | dose: 200.0 mg/kg/injection, schedule: Q04DX002 (ip), vehicle: saline 101 % of control

C(=N\NC1=NCCN1)/c1ccc(-c2cn3cc(/C=N/NC4=NCCN4)ccc3n2)cc1
inactive: [8] 112 % of control

COC(=O)c1cc(C)cc(O)c1C
inactive: dose: 50.0 mg/kg/injection, schedule: Q01DX009 (ip), vehicle: saline with Tween-80 102 % of control | dose: 100.0 mg/kg/injection, schedule: Q01DX009 (ip), vehicle: saline with Tween-80 101 % of control | dose: 200.0 mg/kg/injection, schedule: Q01DX009 (ip), vehicle: saline with Tween-80 99 % of control | dose: 400.0 mg/kg/injection, schedule: Q01DX009 (ip), vehicle: saline with Tween-80 101 % of control

O=C(O)c1c2c(nc3ccccc13)CCC(C(=O)O)C2 (stereo not drawn)
inactive: [8] 96 % of control | [9] 102 % of control | dose: 240.0 mg/kg/injection, schedule: Q01DX005 (ip), vehicle: saline with Tween-80 96 % of control

CC(CO)CCC1OC2CC3C4CC=C5CC(O)CCC5(C)C4CCC3(C)C2C1C (stereo not drawn)
inactive: dose: 2.25 mg/kg/injection, schedule: Q01DX005 (ip), vehicle: Klucel (hydroxypropylcellulose) (HPC) 98 % of control | dose: 4.5 mg/kg/injection, schedule: Q01DX005 (ip), vehicle: Klucel (hydroxypropylcellulose) (HPC) 100 % of control | dose: 9.0 mg/kg/injection, schedule: Q01DX005 (ip), vehicle: Klucel (hydroxypropylcellulose) (HPC) 88 % of control | dose: 36.0 mg/kg/injection, schedule: Q01DX005 (ip), vehicle: Klucel (hydroxypropylcellulose) (HPC) 87 % of control

C[c-]1[c-][c-][c-][c-]1.C[c-]1[c-][c-][c-][c-]1.[C-]#[O+].[C-]#[O+].[C-]#[O+].[C-]#[O+].[C-]#[O+].[C-]#[O+].[Mo].[Mo]
inactive: [2] 98 % of control | [3] 93 % of control

O=C(OCC1OC(n2cc(C(F)(F)F)c(=O)[nH]c2=O)CC1OC(=O)c1ccc([N+](=O)[O-])cc1)c1ccc([N+](=O)[O-])cc1 (stereo not drawn)
inactive: dose: 12.0 mg/kg/injection, schedule: Q01DX005 (ip), vehicle: Klucel (hydroxypropylcellulose) (HPC) 100 % of control | dose: 25.0 mg/kg/injection, schedule: Q01DX005 (ip), vehicle: Klucel (hydroxypropylcellulose) (HPC) 108 % of control | dose: 50.0 mg/kg/injection, schedule: Q01DX005 (ip), vehicle: Klucel (hydroxypropylcellulose) (HPC) 105 % of control and 108 % of control | dose: 100.0 mg/kg/injection, schedule: Q01DX005 (ip), vehicle: Klucel (hydroxypropylcellulose) (HPC) 107 % of control
